Paper PMC8443589, “Modelling human liver fibrosis in the context of non-alcoholic steatohepatitis using a microphysiological system” (Communications Biology, 2021)

Tested on: liver MPS NASH model (PHH, KC and HSC co-cultures, high fat)
Assay: Secreted cytokine/biomarker profile (Luminex, ELISA) of liver MPS NASH model dosed with OCA or ELF
Type: cell-based, human
Method: Fig. 3 Obeticholic acid and Elafibranor both modulate inflammatory and fibrosis phenotype in liver MPS NASH model and phenotype can additionally be reversed with dietary changes. PHH, KC and HSC co-cultures were cultured in the MPS platform under high fat conditions and dosed with varying concentrations of Obeticholic acid (OCA) and Elafibranor (ELF) QD or vehicle control (control) for 10 days, following an initial 4-day pre-culture phase. a The secreted cytokine profile from liver microtissues was compared by Luminex to determine the effects of each compound on the inflammatory profile of the liver with samples analysed at day 8 and 14 of the culture. Data were normalised by Z-transformation to allow comparison of all analytes and presented as a heatmap. b The expression of fibrosis-associated genes was analysed in total RNA from control, OCA and ELF treated liver microtissues (highest concentration for each compound) using Human Fibrosis RT2 Profiler PCR Arrays. Gene expression changes are expressed as a fold change over control. c Liver microtissues were stained for collagen-type I, α-SMA, nuclei (DAPI - blue), phalloidin (green) and imaged by confocal microscopy. Representative images are shown and scale bars 200 µm. d Staining of microtissue was quantified by measuring total fluorescence intensity throughout individual microtissues, each data point represents an average of all the microtissues imaged within an MPS scaffold (min 8, max 20 microtissues). e PHH, KC and HSC co-cultures were cultured in the MPS platform under high fat or lean conditions for 30 days. Cultures either remained in the same type of media throughout or were switched at day 15 from fat media to lean media (Fat -> Lean). Cell culture medium samples were analysed for the presence of IL-6, f MCP-1, g TIMP-1, which were measured by ELISA. h Microtissues were stained with Oil-Red O to determine fat loading during culture period, total stain was quantified by absorbance at 510 nm. All datapoints shown, either as box-whisker plots highlighting mean and min-max or with error bars highlighting means ± SD. All data from a minimum of three independent cultures; statistical comparisons made to control samples unless other comparison shown.
Soluble biomarkers in cell culture medium from the MPS were analysed by enzyme-linked immunosorbent assay (ELISA); IL-6 was measured by Human IL-6 DuoSet ELISA (R&D Systems); MCP-1 was measured by Human CCL2/MCP-1 DuoSet ELISA (R&D Systems); pro-collagen 1 was measured by Human Pro-Collagen I α1 DuoSet (R&D Systems); TIMP-1 was measured by Human TIMP-1 Quantikine ELISA Kit (R&D Systems); Fibronectin was measured by Human Fibronectin DuoSet ELISA (R&D Systems); YKL-40 was measured by Human Chitinase 3-like 1 Quantikine ELISA Kit (R&D Systems); Albumin secretion was measured by Human Albumin AssayMax™ ELISA kit (Assay Pro, St. Charles, MO). For all assays, the manufacturer’s protocol was followed.
Cytokine profiles in cell culture medium samples were also analysed by Luminex array for determination of 38 analytes in total, consisting of cytokines, chemokines, and growth factors using the MILLIPLEX MAP Human Cytokine/Chemokine Magnetic Bead Panel - Premixed 38 Plex (Merck Millipore, USA).
Liver microtissues were cultured for 4 days in HEP-FAT medium, before dosing with obeticholic acid or elafibranor. Both compounds were dissolved in DMSO, diluted in cell culture medium (final DMSO concentration ≤1%) and added to microtissues during a full medium change every two days and in addition on the intervening days compounds were spiked into the media to increase drug concentration back to desired concentrations. Cultures were maintained in the presence of the compound, for a total of 10 days in the presence or absence of TGFβ.

Compound: CC[C@H]1[C@@H](O)[C@@H]2[C@H](CC[C@]3(C)[C@@H]([C@H](C)CCC(=O)O)CC[C@@H]23)[C@@]2(C)CC[C@@H](O)C[C@@H]12 [Obeticholic acid]
- inflammatory cytokines, including CXCL1, IL1-Rα, IL-6 and MCP-1 (10 days of compound treatment): concentration-dependent decrease
- CXCL1 fold change in production compared to control (OCA 0.25 µM QD, D8): 1.039
- CXCL10 fold change in production compared to control (OCA 0.25 µM QD, D8): 1.592
- FN1 fold change in production compared to control (OCA 0.25 µM QD, D8): 1.009
- IL-1RA fold change in production compared to control (OCA 0.25 µM QD, D8): 0.6936
- IL-4 fold change in production compared to control (OCA 0.25 µM QD, D8): 1.307
- IL-6 fold change in production compared to control (OCA 0.25 µM QD, D8): 0.4788
- IL-8 fold change in production compared to control (OCA 0.25 µM QD, D8): 1.109
- MCP-1 fold change in production compared to control (OCA 0.25 µM QD, D8): 1.237
- MIP-1a fold change in production compared to control (OCA 0.25 µM QD, D8): 1.006
- MIP-1b fold change in production compared to control (OCA 0.25 µM QD, D8): 1.009
- TIMP-1 fold change in production compared to control (OCA 0.25 µM QD, D8): 0.957
- VEGF fold change in production compared to control (OCA 0.25 µM QD, D8): 0.3694
- CXCL1 fold change in production compared to control (OCA 0.25 µM QD, D14): 0.7512
- CXCL10 fold change in production compared to control (OCA 0.25 µM QD, D14): 1.289
- FN1 fold change in production compared to control (OCA 0.25 µM QD, D14): 1.087
- IL-1RA fold change in production compared to control (OCA 0.25 µM QD, D14): 0.3915
- IL-4 fold change in production compared to control (OCA 0.25 µM QD, D14): 1.067
- IL-6 fold change in production compared to control (OCA 0.25 µM QD, D14): 0.3892
- IL-8 fold change in production compared to control (OCA 0.25 µM QD, D14): 0.7621
- MCP-1 fold change in production compared to control (OCA 0.25 µM QD, D14): 1.11
- MIP-1a fold change in production compared to control (OCA 0.25 µM QD, D14): 1.483
- MIP-1b fold change in production compared to control (OCA 0.25 µM QD, D14): 1.406
- TIMP-1 fold change in production compared to control (OCA 0.25 µM QD, D14): 0.7667
- VEGF fold change in production compared to control (OCA 0.25 µM QD, D14): 0.2436
- CXCL1 fold change in production compared to control (OCA 5 µM QD, D8): 0.9903
- CXCL10 fold change in production compared to control (OCA 5 µM QD, D8): 1.252
- FN1 fold change in production compared to control (OCA 5 µM QD, D8): 0.9708
- IL-1RA fold change in production compared to control (OCA 5 µM QD, D8): 0.2279
- IL-4 fold change in production compared to control (OCA 5 µM QD, D8): 1.215
- IL-6 fold change in production compared to control (OCA 5 µM QD, D8): 0.3708
- IL-8 fold change in production compared to control (OCA 5 µM QD, D8): 1.325
- MCP-1 fold change in production compared to control (OCA 5 µM QD, D8): 0.9348
- MIP-1a fold change in production compared to control (OCA 5 µM QD, D8): 0.7425
- MIP-1b fold change in production compared to control (OCA 5 µM QD, D8): 0.6949
- TIMP-1 fold change in production compared to control (OCA 5 µM QD, D8): 0.8577
- VEGF fold change in production compared to control (OCA 5 µM QD, D8): 0.4201
- CXCL1 fold change in production compared to control (OCA 5 µM QD, D14): 0.8937
- CXCL10 fold change in production compared to control (OCA 5 µM QD, D14): 1.722
- FN1 fold change in production compared to control (OCA 5 µM QD, D14): 1.05
- IL-1RA fold change in production compared to control (OCA 5 µM QD, D14): 0.2225
- IL-4 fold change in production compared to control (OCA 5 µM QD, D14): 1.3182
- IL-6 fold change in production compared to control (OCA 5 µM QD, D14): 0.3278
- IL-8 fold change in production compared to control (OCA 5 µM QD, D14): 2.0708
- MCP-1 fold change in production compared to control (OCA 5 µM QD, D14): 0.6363
- MIP-1a fold change in production compared to control (OCA 5 µM QD, D14): 0.8372
- MIP-1b fold change in production compared to control (OCA 5 µM QD, D14): 0.7752
- TIMP-1 fold change in production compared to control (OCA 5 µM QD, D14): 0.8205
- VEGF fold change in production compared to control (OCA 5 µM QD, D14): 0.5877
- CXCL1 fold change in production compared to control (OCA 12.5 µM QD, D8): 0.5392
- CXCL10 fold change in production compared to control (OCA 12.5 µM QD, D8): 1.011
- FN1 fold change in production compared to control (OCA 12.5 µM QD, D8): 0.8305
- IL-1RA fold change in production compared to control (OCA 12.5 µM QD, D8): 0.1467
- IL-4 fold change in production compared to control (OCA 12.5 µM QD, D8): 0.6477
- IL-6 fold change in production compared to control (OCA 12.5 µM QD, D8): 0.3353
- IL-8 fold change in production compared to control (OCA 12.5 µM QD, D8): 0.6609
- MCP-1 fold change in production compared to control (OCA 12.5 µM QD, D8): 0.4398
- MIP-1a fold change in production compared to control (OCA 12.5 µM QD, D8): 1.1281
- MIP-1b fold change in production compared to control (OCA 12.5 µM QD, D8): 0.9989
- TIMP-1 fold change in production compared to control (OCA 12.5 µM QD, D8): 1.076
- VEGF fold change in production compared to control (OCA 12.5 µM QD, D8): 0.449
- CXCL1 fold change in production compared to control (OCA 12.5 µM QD, D14): 0.5648
- CXCL10 fold change in production compared to control (OCA 12.5 µM QD, D14): 0.9485
- FN1 fold change in production compared to control (OCA 12.5 µM QD, D14): 0.8335
- IL-1RA fold change in production compared to control (OCA 12.5 µM QD, D14): 0.07151
- IL-4 fold change in production compared to control (OCA 12.5 µM QD, D14): 0.8808
- IL-6 fold change in production compared to control (OCA 12.5 µM QD, D14): 0.05395
- IL-8 fold change in production compared to control (OCA 12.5 µM QD, D14): 1.84
- MCP-1 fold change in production compared to control (OCA 12.5 µM QD, D14): 0.2656
- MIP-1a fold change in production compared to control (OCA 12.5 µM QD, D14): 0.8417
- MIP-1b fold change in production compared to control (OCA 12.5 µM QD, D14): 0.7263
- TIMP-1 fold change in production compared to control (OCA 12.5 µM QD, D14): 0.9472
- VEGF fold change in production compared to control (OCA 12.5 µM QD, D14): 0.5676
